Reference: the NIST ThermoML archive (doi:10.1016/j.fluid.2015.07.022)
Numbers after ± are expanded uncertainties.

Details: 298.15 K; for viscosity / mass density: 100 kPa, Liquid; for viscosity: Capillary tube (Ostwald / Ubbelohde) method; for mass density: Vibrating tube method
[1] = Kruss K11 tensiometer with Wilhelmy plate

`CCCCCCCCCCCC` [dodecane] gave a surface tension liquid-gas [1] of 24.9 ± 0.2 mN/m, a viscosity of 1.359 ± 0.015 mPa·s and a mass density of 745.23 ± 0.14 kg/m3.

Work on `O` [water] yielded a surface tension liquid-gas (Kruss K11 tensiometer and Wilhelmy plate) of 72 ± 0.2 mN/m and a viscosity of 0.899 ± 0.01 mPa·s.

`CCCCCCCCCCCCCC[P+](CCCCCC)(CCCCCC)CCCCCC.N#C[N-]C#N` [tetradecyl(trihexyl)phosphonium dicyanamide] gave a surface tension liquid-gas [1] of 33.1 ± 0.4 mN/m, a viscosity of 437.8 ± 17 mPa·s and a mass density of 897.36 ± 0.72 kg/m3.
